Measurements published in PubChem BioAssay AID179 (DTP/NCI, 2004).
pEC50, pIC50: −log10 of the molar value. “And” between values parts separate entries of the source, which are not always exact repeats. Equal entries are not always repeated. The source made the active and inactive calls.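 How the source made its calls: active means compounds giving half or more protection of infected cells from virus-caused growth loss, again on retest; inactive means the rest.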

System: CEM cells HIV-1 protection, formazan growth assay
Test: NCI AIDS Antiviral Assay
Details: for pIC50: measured here: growth of uninfected CEM cells
Outline: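 Protection of CEM cells against HIV-1 measured as cell growth via soluble formazan read-out, with five concentrations tested on both infected and uninfected cells; failure to protect may reflect toxicity.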

Row | SMILES | pEC50 | pIC50 | outcome
1 | O=S(=O)(O)OCC1OC2OC3C(COS(=O)(=O)O)OC(OC4C(COS(=O)(=O)O)OC(OC5C(COS(=O)(=O)O)OC(OC6C(COS(=O)(=O)O)OC(OC7C(COS(=O)(=O)O)OC(OC8C(COS(=O)(=O)O)OC(OC1C(OS(=O)(=O)O)C2OS(=O)(=O)O)C(OS(=O)(=O)O)C8OS(=O)(=O)O)C(OS(=O)(=O)O)C7OS(=O)(=O)O)C(OS(=O)(=O)O)C6OS(=O)(=O)O)C(OS(=O)(=O)O)C5OS(=O)(=O)O)C(OS(=O)(=O)O)C4OS(=O)(=O)O)C(OS(=O)(=O)O)C3OS(=O)(=O)O (stereo not given) | 4.67 and < 4.30 | 4.12 and < 4.30 | –
2 | CC(=O)c1c(-c2ccc(Cl)cc2)c(C#N)c(=S)n(C2OC(CO)C(O)C(O)C2O)c1-c1ccccc1 (stereo not given) | < 3.70 | 4.55 and 4.85 | –
3 | CC[C@@H]1C[C@H]2CC3c4[nH]c5ccc(O)cc5c4CCN(C2)C31 | < 3.43 | 4.03 | –
4 | Cc1ccc2c(CC(=O)O)cc(=O)oc2c1C | < 3.70 | 3.81 | –
5 | O=C1c2cccc3cccc(c23)C(=O)N1CCN1C(=O)c2cccc3cccc(c23)C1=O | < 3.70 | 4.52 | –
6 | CC(C)/C(Cl)=N\OC(=O)Nc1ccccc1F | < 3.70 | 5.10 | –
7 | COc1cc(OCc2ccc3nc(-c4ccccc4)c(Cl)nc3c2)cc(OC)c1OC | < 3.70 | < 3.70 | –
8 | O=c1ccc2ccc3occc(=O)c3c2o1 | < 3.92 | 3.99 | –
9 | ClC1OC(Cl)(Cl)C(Cl)(Cl)OC1(Cl)Cl (stereo not given) | – | – | inactive
10 | Cn1cncc1CC1COC(=O)C1C(O)c1ccccc1 (stereo not given) | < 3.70 | < 3.70 | –
11 | CN(C)c1ccc(N=Nc2cccc3ccoc23)cc1 | – | – | inactive
12 | CNC(=O)Nc1ccncc1 | < 3.70 | < 3.70 | –
13 | COc1nc(N)c(N=O)c(OCc2ccccc2)n1 | < 3.70 | 5.40 | –
14 | CCCCCCCCCCCCCC(=O)CBr | – | – | inactive
15 | CCN(CC)Cc1nc2sc3c(c2c(=O)n1-c1ccccc1)CCCC3 | < 3.70 | 4.40 | –
16 | O=C(O)CCN(CCC(=O)O)c1ccc(/C=C2\SC(=S)NC2=O)cc1 | < 3.70 | 3.77 | –
17 | COc1ccccc1Nc1nc(NNC(=O)Cc2ccccc2)nc(NNC(=O)c2ccncc2)n1 | < 4.30 | < 4.30 | –
18 | O=C1/C(=C/c2ccc(Br)s2)NC(=S)N1CN1CCCCC1 | < 3.70 | 4.42 | –
19 | Cn1c2c(c3cc(Cl)cc(Cl)c31)-c1ncncc1CC2 | < 4.21 | < 4.21 | –
20 | NC12CC3CC(C1)CC(C(=O)O)(C3)C2 | < 2.97 | < 2.97 | –
21 | C/C(=C/CNc1ncnc2c1ncn2CCC#N)CO | < 3.70 | < 3.70 | –
22 | Cc1cc(SSc2cc(C)c3ccccc3n2)nc2ccccc12 | < 3.70 | 3.96 | –

Row | SMILES | pEC50 | pIC50 | outcome
23 | CCN=Cc1c(O)c(O)c(C(C)C)c2cc(C)c(-c3c(C)cc4c(C(C)C)c(O)c(O)c(C=NCC)c4c3O)c(O)c12 | – | – | inactive
24 | COC1/C=C/OC2(C)Oc3c(C)c(O)c4c(O)c(c(/C=N/N5C(C)CN(Cc6ccc([N+](=O)[O-])cc6)CC5C)c(O)c4c3C2=O)NC(=O)/C(C)=C\C=C\C(C)C(O)C(C)C(O)C(C)C(OC(C)=O)C1C (stereo not given) | < 3.70 | 5.12 | –
25 | CO[C@]12[C@@H](COC(=O)NCCO)C3=C(C(=O)C(C)=C(N)C3=O)N1C[C@@H]1[C@H]2N1C (stereo not given in full) | < 3.70 | 4.28 | –
26 | c1ccc([B-]2([C+]3CCCCC3)N3CCCCC3C3CCCCN32)cc1 (stereo not given) | < 3.70 | 5.08 | –
27 | N#CCCN1C(=O)CCC2(CCC(=O)N(CCC#N)C2=O)C1=O | < 3.10 | < 3.10 | –
28 | Cc1cc(C2(c3cc(C)c(O)c(CN(CC(=O)O)CC(=O)O)c3)OS(=O)(=O)c3ccccc32)cc(CN(CC(=O)O)CC(=O)O)c1O | 4.03 | < 4.00 | –
29 | Nc1nc2c(ncn2C2CCC(CO)OC2)c(=O)[nH]1 (stereo not given) | 3.84 | < 3.70 | –
30 | COc1cc([N+](=O)[O-])c(S(=O)(=O)O)cc1-[n+]1nc(C(=O)Nc2ccccc2)nn1-c1ccc([N+](=O)[O-])c(S(=O)(=O)[O-])c1 | < 3.70 | < 3.70 | –
31 | COc1ccc(-c2cc[n+]([O-])c(C)c2C)c(OC)c1OC | < 3.06 | 4.08 | –
32 | CC(C(=O)O)c1ccc2oc(-c3ccc(Cl)cc3)nc2c1 (stereo not given) | < 3.70 | < 3.70 | –
33 | Cn1c(=O)n(C2(C)C[Se]C2)c2ccccc21 | < 3.33 | 3.78 | –
34 | Cc1cc(NC(=O)c2ccc(N)cc2)ccc1N=Nc1ccc2c(O)c(N=Nc3ccc4cc(S(=O)(=O)O)ccc4c3)c(S(=O)(=O)O)cc2c1 | 4.60 | < 4.00 | –
35 | CCOC(=O)c1c(NC(=S)Nc2ccc(Cl)cc2)sc2c1CCN(C)C2 | < 4.00 | < 4.00 | –
36 | CC(=O)/C(=C/N1CCNC1=S)C(=O)Nc1ccccc1C | < 3.70 | < 3.70 | –
37 | CC(/C=C/C1OC(=O)C=CC1C)=C\C(C)C/C=C/C(C)=C/C(C)C(=O)C(C)C(O)C(C)C/C(C)=C/C(=O)O (stereo not given) | < 7.70 | 8.20 | –
38 | COc1cccc(C2CC(C)=Nc3c(ccc4c3C(=O)c3ccccc3C4=O)N2)c1O (stereo not given) | < 5.04 | < 5.04 | –
39 | O=C(OCCO)C1CC2CC1C1(C2)OCCO1 (stereo not given) | – | – | inactive
40 | O=C1CCCn2c(nc3ccccc32)N1 | < 3.70 | < 3.70 | –
41 | O=C1/C(=C\c2cccc(Oc3ccccc3)c2)S(=O)(=O)C(c2ccccc2)N1c1cccc([N+](=O)[O-])c1 (stereo not given) | < 3.70 | 5.02 | –
42 | C=CCn1c(=O)c2ccccc2[n+]2c(C)c(C(=O)OCC)sc12 | 3.88 | < 3.70 | –
43 | NCC(=O)Nc1ccc(S(=O)(=O)O)c2cc(S(=O)(=O)O)cc(S(=O)(=O)O)c12 | < 3.70 | < 3.70 | –
44 | O=C(O)/C=C/C(=O)Nc1ccccc1 | < 3.70 | < 3.70 | –

Row | SMILES | pEC50 | pIC50 | outcome
45 | O=C1Sc2ccccc2C(=O)N2CSCC12 (stereo not given) | – | < 3.70 | inactive
46 | CN1CCCC2[C@@H]3CCC4c5nonc5CC[C@]4(C)C3CC[C@@]21C (stereo not given in full) | < 4.26 | < 4.26 | –
47 | COc1cc2c(cc1O)C(=O)OC1CC=C3CC[N@@+](C)([O-])[C@H]3C21 (stereo not given in full) | < 3.71 | < 3.71 | –
48 | CN(C)N=Nc1cccc(C(N)=O)c1 | < 3.19 | 3.84 | –
49 | O=NN(CCCl)C(=O)NCCCl | < 2.94 | < 2.94 | –
50 | COc1c(Cl)cc(C(=CCCCC(=O)O)c2cc(Cl)c(OC)c(C(=O)O)c2)cc1C(=O)O | < 3.70 | < 3.70 | –
51 | COc1ccc(C)cc1-c1cc(Sc2ccccc2)c(-c2cc(C)ccc2OC)o1 | < 4.27 | < 4.27 | –
52 | COC1OOC(OC)c2ccccc2-c2ccccc21 (stereo not given) | < 3.70 | 4.91 | –
53 | Cc1c(-c2ccccc2)oc2c(C(=O)OCCN3CCCCC3)cccc2c1=O | – | – | inactive
54 | CC(C)(CN1CCCCC1)C(=O)/C=C/c1ccc(Cl)cc1 | < 4.44 | 5.10 | –
55 | O=C1CSC(/C=C/c2ccccc2)N1c1ccc(-c2ccc(-n3c(-c4ccccc4)nc4ccccc4c3=O)cc2)cc1 (stereo not given) | < 3.70 | 4.55 | –
56 | Cc1cccc(C)c1NC(=S)NNC(=O)NNC(=S)Nc1c(C)cccc1C | < 3.70 | < 3.70 | –
57 | [O-][n+]1ccccc1SSc1cccc[n+]1[O-] | < 5.70 | 6.85 | –
58 | CCCN1C(=O)c2cc(=O)n(Cc3ccccc3)c(O)c2C1C (stereo not given) | < 3.94 | < 3.94 | –
59 | N#C/C(=C/N1C(=O)CC(=O)NC1=S)C(N)=O | < 3.70 | < 3.70 | –
60 | CCCC1OC(CCC)C2CCCOC2O1 (stereo not given) | < 3.70 | < 3.70 | –
61 | CN(C)CCO/N=C1/C=C2CC[C@H]3[C@@H]4CC[C@H](O)[C@@]4(C)CC[C@@H]3[C@@]2(C)CC1 | < 3.70 | 5.22 | –
62 | COC(=O)/C1=C/C2CC(/C=C(/c3ccccc3)C(=O)O1)C2 | – | – | inactive
63 | S=c1c2ccccc2c(=S)n(-c2ccccc2)n1-c1ccccc1 | < 3.70 | < 3.70 | –
64 | O=C1c2c(O)ccc(O)c2C(=O)c2c(NCCCCO)ccc(NCCCCO)c21 | 4.80 | 4.76 | –
65 | CC(C)=CCC[C@@H](C)C1=C(O)C(c2c(I)c(=O)n(C)c(=O)n2C)=C(C)C(=O)C1=O | < 3.70 | 3.95 | –
66 | Clc1ccc2c(c1)[nH]c1c2nc2sccn21 | – | – | inactive

Row | SMILES | pEC50 | pIC50 | outcome
67 | Cn1c2ccccc2n2c(=O)c(-c3ccc(O)cc3)nnc12 | < 3.70 | < 3.70 | –
68 | N#C/C(N)=C(\C#N)NC(=O)C(=O)N/C(C#N)=C(\N)C#N | 4.16 | < 3.70 | –
69 | CC(C)(C)OC/C=C1\C(=O)O[C@H]2C[C@@H](O[Si](C)(C)C(C)(C)C)C[C@@H]12 | < 3.70 | 4.40 | –
70 | CCOC(=O)c1c2ccc(/C=C/c3ccccc3)ccc-2c(C(=O)OCC)c1N | < 5.15 | < 5.15 | –
71 | c1ccc(CSSCc2ccccc2)cc1 | – | – | inactive
72 | COc1cc2c(c(O)c1OC)C(=O)C1CCC(=O)N1C2c1cccc2ccccc12 (stereo not given) | < 3.70 | 4.50 | –
73 | CCCN=C(NNC(N)=O)C(C)=O | < 2.87 | 2.96 | –
74 | COc1ccc2c(C)cc(=O)oc2c1 | < 3.70 | < 3.70 | –
75 | CCCCNC(=O)NNC(=O)c1cc(/C=C/c2cccc([N+](=O)[O-])c2)ncn1 | < 3.75 | < 3.75 | –
76 | CCC(=O)NC(Nc1cccc(F)c1C)(C(F)(F)F)C(F)(F)F | < 3.70 | < 3.70 | –
77 | Cc1cc(Cl)c2c(c1)C(=N/O)/C(=C\c1ccco1)O2 | < 3.70 | 4.99 | –
78 | CCOc1snc(C(Cl)(Cl)Cl)c1Cl | < 3.70 | < 3.70 | –
79 | CCOC(=O)C(=Cn1c(=S)[nH]c2ccc([N+](=O)[O-])cc21)C(=O)OCC | < 3.70 | 4.11 | –
80 | O=C(C(=O)C(=O)C(=O)C1C(=O)c2ccccc2C1=O)C(=O)C(=O)C1C(=O)c2ccccc2C1=O | – | – | inactive
81 | COC1=CC(=O)C=C(CO)C1=O | < 3.25 | 5.00 | –
82 | O=c1ccn(CC2OCC(CO)O2)c(=O)[nH]1 (stereo not given) | < 2.56 | 2.94 and < 2.56 | –
83 | N#C/C(=C/c1ccco1)C(=O)c1ccccc1 | < 3.79 | < 3.79 | –
84 | CC(C)C1OC23CCCCC2C(C#N)(C#N)C1(C#N)C(=N)O3 (stereo not given) | < 3.70 | 5.23 | –
85 | CCCOP(=O)(OCCC)OC(C(F)(F)F)C(F)(F)F | < 3.70 | < 3.70 | –
